In ChEMBL document CHEMBL5113441, “Exploration of 4-(1H-indol-3-yl)cyclohex-3-en-1-amine analogues as HDAC inhibitors: Design, synthesis, biological evaluation and modelling studies” (Bioorg Med Chem Lett, 2022):
Calls of active or inactive are those of the source. The rule behind the calls is not given here.

Assays:
HCT-116 [1] = test: Antiproliferative activity against human HCT-116 cells measured after 72 hrs; format: functional, cell-based; settings: HCT-116, 72 h
SW480 = test: Antiproliferative activity against human SW480 cells measured after 72 hrs; format: functional, cell-based; settings: SW480, 72 h
HCT-116 [2] = test: Induction of apoptosis in human HCT-116 cells at 2000 nM measured after 48 hrs by Annexin-FITC/propidium iodide staining based flow cytometry; format: functional, cell-based
MCF7 = test: Antiproliferative activity against human MCF7 cells measured after 72 hrs; format: functional, cell-based; settings: MCF7, 72 h
A549 = test: Antiproliferative activity against human A549 cells measured after 72 hrs; format: functional, cell-based; settings: A549, 72 h
[3] = Cytotoxicity against human L02 cells measured after 72 hrs
Histone deacetylase 1 = Histone deacetylase 1 (Homo sapiens, UniProt Q13547); test: Inhibition of HDAC1 (unknown origin)
Sequence of Histone deacetylase 1 (Q13547 whole entry): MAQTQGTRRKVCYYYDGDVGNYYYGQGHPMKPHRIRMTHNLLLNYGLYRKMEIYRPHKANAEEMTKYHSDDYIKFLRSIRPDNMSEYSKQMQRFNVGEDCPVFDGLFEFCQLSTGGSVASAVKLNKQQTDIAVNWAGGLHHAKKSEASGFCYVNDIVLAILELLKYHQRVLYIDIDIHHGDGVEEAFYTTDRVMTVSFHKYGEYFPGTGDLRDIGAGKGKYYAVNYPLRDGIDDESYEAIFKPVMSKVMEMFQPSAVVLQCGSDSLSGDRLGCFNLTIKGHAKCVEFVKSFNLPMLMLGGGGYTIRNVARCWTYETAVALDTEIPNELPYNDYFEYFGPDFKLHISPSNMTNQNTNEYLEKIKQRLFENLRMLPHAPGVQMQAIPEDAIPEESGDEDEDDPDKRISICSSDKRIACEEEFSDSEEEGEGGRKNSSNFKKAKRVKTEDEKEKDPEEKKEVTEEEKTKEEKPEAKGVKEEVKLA

Histone deacetylase 2 = Histone deacetylase 2 (Homo sapiens, UniProt Q92769); test: Inhibition of HDAC2 (unknown origin)
Sequence of Histone deacetylase 2 (Q92769 whole entry): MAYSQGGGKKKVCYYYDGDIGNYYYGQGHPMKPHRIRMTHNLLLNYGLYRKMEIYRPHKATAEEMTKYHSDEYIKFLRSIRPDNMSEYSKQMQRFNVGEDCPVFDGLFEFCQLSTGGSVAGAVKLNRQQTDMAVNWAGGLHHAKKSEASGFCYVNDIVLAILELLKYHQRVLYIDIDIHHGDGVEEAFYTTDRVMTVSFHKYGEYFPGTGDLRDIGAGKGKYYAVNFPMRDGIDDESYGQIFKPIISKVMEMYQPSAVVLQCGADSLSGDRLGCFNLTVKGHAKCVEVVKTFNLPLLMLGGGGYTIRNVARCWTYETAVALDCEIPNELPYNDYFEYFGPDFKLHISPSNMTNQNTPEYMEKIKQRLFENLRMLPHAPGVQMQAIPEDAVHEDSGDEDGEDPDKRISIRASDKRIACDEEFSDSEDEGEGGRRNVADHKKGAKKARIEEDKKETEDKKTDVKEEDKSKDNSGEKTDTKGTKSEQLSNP

Histone deacetylase 3 = Histone deacetylase 3 (Homo sapiens, UniProt O15379); test: Inhibition of HDAC3 (unknown origin)
Sequence of Histone deacetylase 3 (O15379 whole entry): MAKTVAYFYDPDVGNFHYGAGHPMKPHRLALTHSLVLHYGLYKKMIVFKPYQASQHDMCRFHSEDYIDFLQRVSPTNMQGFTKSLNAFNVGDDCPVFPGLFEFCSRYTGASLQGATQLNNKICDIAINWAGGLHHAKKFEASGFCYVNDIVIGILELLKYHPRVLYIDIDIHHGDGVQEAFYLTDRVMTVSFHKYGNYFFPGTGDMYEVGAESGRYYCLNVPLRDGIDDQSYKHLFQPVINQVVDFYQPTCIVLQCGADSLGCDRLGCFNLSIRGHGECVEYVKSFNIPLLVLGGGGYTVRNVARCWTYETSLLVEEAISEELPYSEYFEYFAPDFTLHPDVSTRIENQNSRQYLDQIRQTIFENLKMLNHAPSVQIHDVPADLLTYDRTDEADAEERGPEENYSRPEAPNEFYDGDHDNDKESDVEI

[4] = target: T1, Protein deacetylase HDAC6 (Homo sapiens, UniProt Q9UBN7); test: Inhibition of HDAC6 (unknown origin)
T1 sequence (Q9UBN7 whole entry): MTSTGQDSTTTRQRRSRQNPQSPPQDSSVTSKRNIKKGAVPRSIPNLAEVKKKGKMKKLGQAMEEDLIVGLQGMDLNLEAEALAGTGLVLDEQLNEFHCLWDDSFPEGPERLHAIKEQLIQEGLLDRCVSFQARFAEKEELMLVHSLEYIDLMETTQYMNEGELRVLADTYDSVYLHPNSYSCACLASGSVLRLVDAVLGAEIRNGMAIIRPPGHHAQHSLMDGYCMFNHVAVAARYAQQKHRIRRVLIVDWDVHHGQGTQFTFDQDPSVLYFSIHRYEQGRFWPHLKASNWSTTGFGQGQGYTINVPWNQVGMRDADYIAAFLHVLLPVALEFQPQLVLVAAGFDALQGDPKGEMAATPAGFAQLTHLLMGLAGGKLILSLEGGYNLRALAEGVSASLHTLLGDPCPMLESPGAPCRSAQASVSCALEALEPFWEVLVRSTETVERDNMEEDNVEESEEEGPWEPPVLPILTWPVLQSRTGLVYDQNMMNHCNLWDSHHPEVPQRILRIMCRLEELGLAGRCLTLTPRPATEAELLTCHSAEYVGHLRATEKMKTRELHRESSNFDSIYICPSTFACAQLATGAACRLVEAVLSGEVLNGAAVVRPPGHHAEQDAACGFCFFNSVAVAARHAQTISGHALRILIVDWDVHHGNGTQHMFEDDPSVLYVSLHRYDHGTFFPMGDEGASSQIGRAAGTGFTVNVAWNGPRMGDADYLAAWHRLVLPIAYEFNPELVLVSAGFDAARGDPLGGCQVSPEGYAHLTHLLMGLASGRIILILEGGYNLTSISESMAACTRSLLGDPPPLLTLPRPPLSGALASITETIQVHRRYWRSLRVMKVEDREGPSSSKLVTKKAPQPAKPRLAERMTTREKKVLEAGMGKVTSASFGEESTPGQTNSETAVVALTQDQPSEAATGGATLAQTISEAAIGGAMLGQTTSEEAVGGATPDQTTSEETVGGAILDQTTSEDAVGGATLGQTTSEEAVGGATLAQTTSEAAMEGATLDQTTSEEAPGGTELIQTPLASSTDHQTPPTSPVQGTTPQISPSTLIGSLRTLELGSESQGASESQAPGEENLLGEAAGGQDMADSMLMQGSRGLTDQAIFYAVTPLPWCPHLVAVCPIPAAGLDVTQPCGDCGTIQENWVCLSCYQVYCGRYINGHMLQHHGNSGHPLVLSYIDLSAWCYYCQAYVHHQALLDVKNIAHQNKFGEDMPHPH

Histone deacetylase 8 = target: T2, Histone deacetylase 8 (Homo sapiens, UniProt Q9BY41); test: Inhibition of HDAC8 (unknown origin)
T2 sequence (Q9BY41 whole entry): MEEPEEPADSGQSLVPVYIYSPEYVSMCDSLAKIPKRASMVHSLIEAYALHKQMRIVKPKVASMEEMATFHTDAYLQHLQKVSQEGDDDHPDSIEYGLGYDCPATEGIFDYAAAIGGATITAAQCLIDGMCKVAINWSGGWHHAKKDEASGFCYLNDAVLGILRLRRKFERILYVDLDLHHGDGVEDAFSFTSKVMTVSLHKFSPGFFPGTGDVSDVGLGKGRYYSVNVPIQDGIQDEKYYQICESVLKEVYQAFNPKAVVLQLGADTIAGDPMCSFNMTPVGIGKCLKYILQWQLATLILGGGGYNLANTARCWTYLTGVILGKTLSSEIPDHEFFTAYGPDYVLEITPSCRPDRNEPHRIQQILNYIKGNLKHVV

HCT-116 [5] = test: Antimigratory activity against human HCT-116 cells at 25 nM measured after 48 hrs by wound healing assay; format: functional, cell-based
HCT-116 [6] = test: Inhibition of colony formation in human HCT-116 cells; format: functional, cell-based; settings: dose 50-200 nM, DDE = dose-dependent effect
[7] = target: T3, Histone deacetylase 1/2/3 (Homo sapiens) (UniProt Q13547+O15379+Q92769); test: Inhibition of HDAC1/HDAC2/HDAC3 in human HCT-116 cells assessed as increase in accumulation of acetylated histone H3 measured after 48 hrs by Western blot analysis; format: cell-based; settings: dose 200-800 nM, DDE = dose-dependent effect
[8] = target: T3, Histone deacetylase 1/2/3 (Homo sapiens); test: Inhibition of HDAC1/HDAC2/HDAC3 in human HCT-116 cells assessed as increase in accumulation of acetylated histone H4 measured after 48 hrs by Western blot analysis; format: cell-based; settings: dose 200-800 nM, DDE = dose-dependent effect
HCT-116 [9] = test: Induction of apoptosis in human HCT-116 cells assessed as chromatin condensation measured after 48 hrs by Hoechst 33342 staining based assay; format: functional, cell-based; settings: dose 50-200 nM, DDE = dose-dependent effect
HCT-116 [10] = test: Induction of apoptosis in human HCT-116 cells assessed as appearance of smaller nuclei measured after 48 hrs by Hoechst 33342 staining based assay; format: functional, cell-based; settings: dose 50-200 nM, DDE = dose-dependent effect
HCT-116 [11] = test: Cell cycle arrest in human HCT-116 cells assessed as increase in accumulation at G2/M phase measured after 48 hrs by propidium iodide staining based flow cytometry; format: functional; settings: dose 50-200 nM, DDE = dose-dependent effect
HCT-116 [12] = test: Induction of apoptosis in human HCT-116 cells assessed as apoptotic cells at 200 nM measured after 48 hrs by Annexin-FITC/propidium iodide staining based flow cytometry relative to control; format: functional
HCT-116 [13] = test: Induction of apoptosis in human HCT-116 cells assessed as apoptotic cells at 100 nM measured after 48 hrs by Annexin-FITC/propidium iodide staining based flow cytometry relative to control; format: functional
HCT-116 [14] = test: Induction of apoptosis in human HCT-116 cells measured after 48 hrs by Annexin-FITC/propidium iodide staining based flow cytometry; format: functional, cell-based; settings: dose 50-200 nM, DDE = dose-dependent effect
[15] = Selectivity index, ratio of IC50 for human L02 cells to IC50 for human A549 cells; format: toxicity; settings: L02 cells and A549 cells, read-out: Ratio IC50
Homo sapiens [16] = species: Homo sapiens; test: Selectivity ratio of IC50 for HDAC6 (unknown origin) to IC50 for HDAC1 (unknown origin)
Homo sapiens [17] = species: Homo sapiens; test: Selectivity ratio of IC50 for HDAC6 (unknown origin) to IC50 for HDAC2 (unknown origin)
Homo sapiens [18] = species: Homo sapiens; test: Selectivity ratio of IC50 for HDAC6 (unknown origin) to IC50 for HDAC3 (unknown origin)

IC50 (HCT-116 [1]) [nM] | IC50 (SW480) [nM] | IC50 (MCF7) [nM] | IC50 (A549) [nM] | Structure (SMILES) | also measured
– | 2120 | – | – | O=C(CCCCCCC(=O)Nc1ccccc1)NO [VORINOSTAT] | Activity (HCT-116 [2]): Active
436 | 1150 | 1170 | 278 | O=C(COc1ccc(CNC2CC=C(c3c[nH]c4ccccc34)CC2)c(F)c1)NO (centres undefined) | –
> 5000 | > 5000 | – | – | O=C(COc1ccc(C(=O)NC2CC=C(c3c[nH]c4cccc(F)c34)CC2)cc1)NO (centres undefined) | –
> 5000 | > 5000 | – | – | Cc1[nH]c2ccccc2c1C1=CCN(C(=O)c2ccc(OCC(=O)NO)cc2)CC1 | –
410 | – | 539 | – | O=C(COc1ccc(CNCCn2cnc3ccccc32)c(F)c1)NO | –
99 | 170 | 912 | 130 | Cc1[nH]c2ccccc2c1C1=CCC(NCc2ccc(OCC(=O)NO)cc2F)CC1 (centres undefined) | IC50 at 72 h [3]: 2300 nM; IC50 (Histone deacetylase 1): 1.6 nM; IC50 (Histone deacetylase 2): 1.9 nM; IC50 (Histone deacetylase 3): 3.8 nM; IC50 [4]: 13 nM; IC50 (Histone deacetylase 8): 86 nM; Activity (HCT-116 [5]): Active; inhibition (HCT-116 [6]): Dde; inhibition [7]: Dde; inhibition [8]: Dde; Activity (HCT-116 [9]): Dde; Activity (HCT-116 [10]): Dde; Activity (HCT-116 [11]): Dde; Activity (HCT-116 [12]): 91.5%; Activity (HCT-116 [13]): 81.8%; Activity (HCT-116 [14]): Dde; selectivity ratio [15]: 20; Ratio IC50 (Homo sapiens [16]): 3; Ratio IC50 (Homo sapiens [17]): 3; Ratio IC50 (Homo sapiens [18]): 3
254 | – | 1180 | 244 | Cc1[nH]c2cccc(F)c2c1C1=CCC(NCc2ccc(OCC(=O)NO)cc2F)CC1 (centres undefined) | –
192 | – | 221 | – | O=C(COc1ccc(CNCCc2c[nH]c3ccccc23)cc1)NO | –
1940 | – | 1080 | – | O=C(COc1ccc(CNCCc2c[nH]c3ccccc23)cc1Cl)NO | –
733 | 509 | 2310 | 501 | Cc1[nH]c2ccccc2c1C1=CCC(NCc2ccc(OCC(=O)NO)cc2F)C(F)C1 (centres undefined) | –

Structure (SMILES) | IC50 (HCT-116 [1]) [nM] | IC50 (SW480) [nM] | IC50 (MCF7) [nM] | IC50 (A549) [nM] | also measured
O=C(COc1ccc(CN2CC=C(c3c[nH]c4cccc(F)c34)CC2)cc1)NO | 969 | 2310 | – | – | –
Cc1ccc2[nH]cc(C3=CCN(Cc4ccc(OCC(=O)NO)cc4)CC3)c2c1 | 632 | 3960 | – | – | –
O=C(COc1ccc(CN2CC=C(c3c[nH]c4ccc(F)cc34)CC2)cc1)NO | 949 | 1110 | – | – | –
Cc1ccc2[nH]cc(C3=CCN(Cc4ccc(OCC(=O)NO)cc4F)CC3)c2c1 | 1450 | 1950 | – | – | –
Cc1[nH]c2ccccc2c1C1=CCN(Cc2ccc(OCC(=O)NO)cc2)CC1 | 301 | 697 | 1590 | 615 | –
